Experimental data published in PMC12073635, “Synthesis of Tricyclic and Tetracyclic Lactone Derivatives of Thieno[2,3-b]pyrazine or Thieno[2,3-b]quinoline: Preliminary Antitumor and Antiparasitic Activity Evaluation” (Molecules, 2025).

How the values were obtained:
[1] = test system: CaCo-2 (colorectal adenocarcinoma) cells; assay: SRB cell growth inhibition assay, CaCo-2; assay type: cell-based, human; settings: Homo sapiens, Caco-2, 72 h, mean ± standard deviation
Procedure: (§1) The antitumor potential of the Sonogashira coupling products 2, tricyclic lactones 3 and 5, and tetracyclic lactones 7 was evaluated using the sulforhodamine B (SRB) assay against five human tumor cell lines: colorectal adenocarcinoma (CaCo-2), breast adenocarcinoma (MCF-7), gastric adenocarcinoma (AGS), cervical carcinoma (HeLa), and non-small cell lung cancer (NCI-H460). A primary pig liver cell culture (PLP2) was used to assess the toxicity of compounds.
(§2) The human tumor cell lines used were CaCo-2 (colorectal adenocarcinoma), MCF-7 (breast adenocarcinoma), AGS (gastric adenocarcinoma), HeLa (cervical carcinoma), NCI-H460 (lung carcinoma). Non-tumor cell lines were also tested: PLP2 (primary pig liver culture). All the cell lines were maintained in RPMI-1640 medium supplemented with 10% fetal bovine serum, glutamine (2 mM), penicillin (100 U/mL), and streptomycin ([…]), with the exception of PLP2, which was maintained in DMEM medium supplemented with fetal bovine serum (10%), glutamine and antibiotics. The culture flasks were incubated at 37 °C and with 5% CO2, under a humid atmosphere. The cells were used only when they had 70 to 80% confluence. A known mass of each compound was dissolved in DMSO/H2O (1:1, 1 mL), in order to obtain the stock solutions with a concentration of 1 mM. […] Each compound concentration (10 μL) was incubated with the cell suspension (190 μL) of the cell lines tested in 96-well microplates for 72 h. The microplates were incubated at 37 °C and with 5% CO2 in a humid atmosphere after checking the adherence of the cells. All cell lines were tested at a concentration of 10,000 cells/well. After the incubation period, the cells were treated: TCA (10% w/v; 100 μL) was previously cooled, and plates were incubated for 1 h at 4 °C, washed with water, and, after drying, a SRB solution (0.057%, m/v; 100 μL) was added and left to stand at room temperature for 30 min. To remove non-adhered SRB, plates were washed three times with a solution of acetic acid (1% v/v) and placed to dry. Finally, an adhered SRB was solubilized with Tris (10 mM, 200 μL) and the absorbance at a wavelength of 540 nm was read in the Biotek ELX800 microplate reader. The results obtained by the SRB assay were expressed regarding the concentration compounds that can inhibit cell growth by 50%—GI50. Doxorubicin was used as a positive control.

[2] = test system: MCF-7 (breast adenocarcinoma) cells; assay: SRB cell growth inhibition assay, MCF-7; assay type: cell-based, human; settings: Homo sapiens, MCF7, 72 h, mean ± standard deviation
Procedure: as §1, §2

[3] = test system: AGS (gastric adenocarcinoma) cells; assay: SRB cell growth inhibition assay, AGS; assay type: cell-based; settings: Homo sapiens, 72 h, mean ± standard deviation
Procedure: as §1, §2

[4] = test system: HeLa (cervical carcinoma) cells; assay: SRB cell growth inhibition assay, HeLa; assay type: cell-based; settings: Homo sapiens, 72 h, mean ± standard deviation
Procedure: as §1, §2

[5] = test system: NCI-H460 (non-small cell lung cancer) cells; assay: SRB cell growth inhibition assay, NCI-H460; assay type: cell-based; settings: Homo sapiens, 72 h, mean ± standard deviation
Procedure: as §1, §2

[6] = SRB assay, toxicity in non-tumor PLP2 cells; assay type: cell-based, pig; settings: PLP2 primary pig liver cells (non-tumor); non-tumor primary pig liver cells, SRB assay, 72 h, mean ± standard deviation
Procedure: as §1, §2

[7] = MTT cytotoxicity in THP-1-derived macrophages; assay type: cell-based, human; settings: human, THP-1-derived macrophages (PMA-differentiated); MTT, 72 h, tested 100 to 12.5 μM; read-out: CC50 Interval in THP-1-Derived Macrophages
Procedure: Human leukemia cell line, THP-1 (ATCC® TIB-202™, Manassas, VA, USA) was cultured in RPMI-1640 medium supplemented with 10% heat-inactivated Fetal Bovine Serum (FBS), 2 mM L-glutamine, 100 UI/mL penicillin/streptomycin, 20 mM HEPES. The cell line was maintained in a humidified incubator at 37 °C and 5% CO2 by subculture every three days in 20 mL of media at a concentration of 1 × 10^5/mL in a T75 flask. All cell culture reagents were purchased from Lonza-Bioscience (Morrisville, NC, USA).
The cytotoxicity effect of compounds on THP-1-derived macrophages was assessed by the colorimetric MTT assay (3-(4,5-dimethylthiazol-2-yl)-2,5-diphenyl tetrazolium bromide). Briefly, THP-1 cells were suspended in RPMI complete medium at a density of 1 × 10^6 cells/mL and 100 μL/well were seeded in a 96-well plate and were differentiated into macrophages by addition of 40 ng/mL of phorbol-myristate 13-acetate (PMA, Sigma, Saint Louis, MI, USA) for 24 h followed by replacement with fresh medium for more 24 h. Subsequently, cells were incubated with 100 μL of compounds ranging from 100 to 12.5 μM after dilution in the RPMI complete medium. Each condition was carried out in quadruplicate. After 72 h of incubation at 37 °C 5% CO2, the medium was removed and 200 μL of 0.5 mg/mL MTT solution diluted in RPMI was added. Plates were incubated for an additional 4 h. Then 160 μL of media was removed and the same volume of 2-propanol was added. Absorbance was read at 570 nm using a Synergy 2 Multi-Mode Reader (Biotek, Winooski, VT, USA). Cytotoxicity was evaluated by the determination of the CC50 value (drug concentration that reduced the percentage of viable cells in 50%) and calculated by non-linear regression analysis using GraphPad Prism version 8.1.1 for Windows (GraphPad Software, San Diego, CA, USA). The results represent the average of at least three independent experiments. For each compound, the Selectivity Index (SI) was calculated as the ratio between cytotoxicity in THP-1 (CC50, 72 h) and activity against parasites (IC50, 72 h).

Row | SMILES | GI50 [1] [µM] | GI50 [2] [µM] | GI50 [3] [µM] | GI50 [4] [µM] | GI50 [5] [µM] | GI50 at 72 h [6] [µM] | CC50 at 72 h [7] [µM]
1 | O=c1oc(-c2ccccc2)cc2c1sc1nccnc12 [Compound 3a, 8-phenyl-6H-pyrano[4′,3′:4,5]thieno[2,3-b]pyrazin-6-one] | 79.9 ± 3.56 | 77.5 ± 1.23 | 56.4 ± 3.76 | 49.7 ± 2.69 | 36.5 ± 0.69 | > 125 | 50 to 100
2 | COC(=O)c1sc2nccnc2c1C#Cc1ccccc1 [Compound 2a, Methyl 7-(phenylethynyl)thieno[2,3-b]pyrazine-6-carboxylate] | 70 ± 3.78 | 94.8 ± 6.43 | 86.8 ± 4.99 | 68.7 ± 3.05 | 91.5 ± 9.12 | > 125 | –
3 | COc1cccc2c1C(=O)c1c(O)c3c(c(O)c1C2=O)C[C@@](O)(C(=O)CO)C[C@@H]3O[C@H]1C[C@H](N)[C@H](O)[C@H](C)O1 [doxorubicin, Doxorubicin, reference compound] | 0.04 | 0.05 | 0.03 | 0.05 | 0.07 | 0.1 | –
4 | Cc1ccc(-c2cc3c(sc4nccnc43)c(=O)o2)cc1 [Compound 3e, 8-(p-Tolyl)-6H-pyrano[4′,3′:4,5]thieno[2,3-b]pyrazin-6-one] | 28.8 ± 1.85 | 47.6 ± 4.5 | 43.8 ± 1.76 | 38.2 ± 3.29 | 29.3 ± 1.47 | 90.5 ± 6.47 | –
5 | Cc1c(-c2ccccc2)oc(=O)c2sc3nc4ccccc4cc3c12 [Compound 7f, 4-Methyl-3-phenyl-1H-pyrano[4’,3’:4,5]thieno[2,3-b]quinolin-1-one] | 87 ± 3.51 | 76.4 ± 2.58 | 83.4 ± 6.27 | 71.5 ± 2.36 | 92.1 ± 3.89 | > 125 | 12.5 to 50
6 | O=c1oc(-c2ccccc2)c(Br)c2c1sc1nccnc12 [Compound 5b, 9-Bromo-8-phenyl-6H-pyrano[4′,3′:4,5]thieno[2,3-b]pyrazin-6-one] | 18.3 ± 0.92 | 45.1 ± 1.74 | 32.8 ± 1.56 | 29.1 ± 2.81 | 48.3 ± 1.08 | 89.8 ± 1.79 | –
7 | COc1ccc(-c2cc3c(sc4nccnc43)c(=O)o2)cc1 [Compound 3d, 8-(4-Methoxyphenyl)-6H-pyrano[4′,3′:4,5]thieno[2,3-b]pyrazin-6-one] | 90.5 ± 6.47 | 58.6 ± 1.86 | 56.2 ± 3.02 | 50.3 ± 4.79 | 45.3 ± 3.27 | > 125 | –
